Reference: patent publication US20230320362A1, “COMPOSITION AND METHOD FOR WEED AND GRASS CONTROL” (United Industries Corporation, priority 2022, published 2023)

Assays:
weed or grass = conditions: Table 1 Notes; cited from earlier work
[1] = tested on: Crimson Clover, Annual Rye Grass, Rescue Grass; test: Field experiment: early burndown and herbicidal efficacy of glufosinate + diquat compositions (FIGS. 3A-3C); type: in vivo; conditions: burndown agent combined with glufosinate
From the text: “Herbicidal efficacy” or “herbicidal effectiveness,” as used herein, refers to any observable measure of control of weed or grass growth, which can include one or more of the actions of (1) killing, (2) inhibiting growth, reproduction or proliferation, and (3) removing, destroying, or otherwise diminishing the occurrence and activity of weeds or grasses. The herbicidal effectiveness data set forth herein report “control” as a percentage following a standard procedure in the art which reflects a visual assessment of plant mortality and growth reduction by comparison with untreated plants, made by technicians specially trained to make and record such observations. In all cases, a single technician makes all assessments of percent control within any one experiment or trial.
Various examples and comparatives examples of the weed control compositions and RTU solutions were prepared according to Table 2. The RTU solutions were applied to test fields with various types of weeds and grasses, and the burndown effect and/or the long-term efficacy of the test RTU solutions are observed and compared. Equipment, sprayer, and selected operating conditions for application of the RTU compositions to the test areas are provided in Table 3.
All field experiments were set in 1 m^2 plots replicated four times in a randomized complete block design with appropriate industry standards and untreated controls. The example compositions and comparative example compositions according to Table 2 were tested in the field experiments. […] Plots were sprayed once, and then assessed for speed to visible activity, percent (%) weed control, and percent residual control over time to determine burndown activity, speed to kill, extended control and residual pre-emergent activity.

Row | Compound | residual activity (in words) (weed or grass) | further results
1 | O=C(O)c1cc(Oc2ccc(C(F)(F)F)cc2Cl)ccc1[N+](=O)[O-] [Acifluorfen] | No residual activity | –
2 | Nc1c([N+](=O)[O-])ccc(Oc2ccccc2)c1Cl [Aclonifen] | Moderate residual activity | –
3 | CCCCCCCCC(=O)O.N [Ammonium nonanoate] | Top kill, no residual activity | burndown compared to glufosinate alone [1]: enhanced burndown compared to glufosinate alone; effectiveness as burndown agent, ammonium nonanoate versus Diquat [1]: superior effectiveness compared to Diquat
4 | Cc1ccc(C(=O)COc2c(C(=O)c3ccc(Cl)c(C)c3Cl)c(C)nn2C)cc1 [Benzafenap] | – | residual activity (weed or grass): 38 days residual activity
5 | CS(=O)(=O)c1ccc(C(=O)C2=C(Sc3ccccc3)C3CCC(C3)C2=O)c(Cl)c1 (stereo not drawn) [Benzobicyclon] | – | residual activity (weed or grass): 14 days residual activity
6 | COC(=O)c1cc(Oc2ccc(Cl)cc2Cl)ccc1[N+](=O)[O-] [Bifenox] | Six to eight weeks residual activity | –
7 | C=CCOC(=O)C(C)(C)OC(=O)c1cc(-n2c(=O)cc(C(F)(F)F)n(C)c2=O)ccc1Cl [Butafenacil] | No residual activity | –
8 | CCCCCCCC(=O)O [Caprylic/octanoic acid] | No residual activity | –
9 | CCOC(=O)C(Cl)Cc1cc(-n2nc(C)n(C(F)F)c2=O)c(F)cc1Cl (stereo not drawn) [Carfentrazone-ethyl] | No residual activity | –
10 | CCOC(=O)/C(Cl)=C/c1cc(N2C(=O)C3=C(CCCC3)C2=O)ccc1Cl [Cinidon-ethyl] | No residual activity | –
11 | c1cc[n+]2c(c1)-c1cccc[n+]1CC2 [Diquat] | No residual activity | burndown compared to glufosinate alone [1]: enhanced burndown compared to glufosinate alone
12 | CCOC(=O)COc1cc(-n2ncc(C(F)(F)F)c(C)c2=O)c(F)cc1Cl [Flufenpyr-ethyl] | No residual activity | –
13 | CCCCCOC(=O)COc1cc(N2C(=O)C3=C(CCCC3)C2=O)c(F)cc1Cl [Flumiclorac pentyl] | No residual activity | –
14 | C#CCN1C(=O)COc2cc(F)c(N3C(=O)C4=C(CCCC4)C3=O)cc21 [Flumioxazin] | One to two weeks residual | –
15 | CCOC(=O)COC(=O)c1cc(Oc2ccc(C(F)(F)F)cc2Cl)ccc1[N+](=O)[O-] [Fluoroglycofen-ethyl] | No residual activity | –
16 | COC(=O)CSc1cc(/N=c2\sc(=O)n3n2CCCC3)c(F)cc1Cl [Fluthiacet-methyl] | No residual activity | –
17 | CS(=O)(=O)NC(=O)c1cc(Oc2ccc(C(F)(F)F)cc2Cl)ccc1[N+](=O)[O-] [Fomesafen] | – | residual activity (weed or grass): 12-month residual activity
18 | CP(=O)(O)CCC(N)C(=O)O (stereo not drawn) [Glufosinate] | Kills shoots and roots, short residual activity | –
19 | Cc1cnc(C2=NC(=O)C(C)(C(C)C)N2)c(C(=O)O)c1 (stereo not drawn) [Imazapic] | Four months residual activity | –
20 | CC(C)C1(C)N=C(c2ncccc2C(=O)O)NC1=O (stereo not drawn) [Imazapyr] | Four months residual activity | –

Row | Compound | residual activity (in words) (weed or grass) | further results
21 | CCc1cnc(C2=NC(C)(C(C)C)C(=O)N2)c(C(=O)O)c1 (stereo not drawn) [Imazethapyr] | Two to three months residual | –
22 | CC(C)N(C(=O)n1cnn(-c2ccc(Cl)cc2Cl)c1=O)c1ccc(F)cc1F [Ipfencarbazone] | – | residual activity (weed or grass): 70 days residual activity
23 | CS(=O)(=O)c1cc(C(F)(F)F)ccc1C(=O)c1cnoc1C1CC1 [Isoxaflutole] | No residual activity | –
24 | CCOC(=O)C(C)OC(=O)c1cc(Oc2ccc(C(F)(F)F)cc2Cl)ccc1[N+](=O)[O-] (stereo not drawn) [Lactofen] | – | residual activity (weed or grass): Very short residual activity (2-3 weeks)
25 | CS(=O)(=O)c1ccc(C(=O)C2C(=O)CCCC2=O)c([N+](=O)[O-])c1 [Mesotrione] | – | residual activity (weed or grass): Limited residual activity (6-15 days)
26 | CC(C)Oc1cc(-n2nc(C(C)(C)C)oc2=O)c(Cl)cc1Cl [Oxadiazon] | – | residual activity (weed or grass): Moderate residual activity (2 months)
27 | CCOc1cc(Oc2ccc(C(F)(F)F)cc2Cl)ccc1[N+](=O)[O-] [Oxyfluorfen] | – | residual (weed or grass): Kills shoots and roots, 30 d residual
28 | CCCCCCCCC(=O)O [Pelargonic acid] | No residual activity | –
29 | CC(C)=C1OC(=O)N(c2cc(OC3CCCC3)c(Cl)cc2F)C1=O [Pentoxazone] | No residual activity | –
30 | CCOC(=O)COc1cc(-c2nn(C)c(OC(F)F)c2Cl)c(F)cc1Cl [Pyraflufen-ethyl] | Burndown activity with no residual | –
31 | Cc1nn(C)c(OCC(=O)c2ccccc2)c1C(=O)c1ccc(Cl)cc1Cl [Pyrazoxyfen] | – | residual activity (weed or grass): 4-15 days residual activity
32 | CC(C)N(C)S(=O)(=O)NC(=O)c1cc(-n2c(=O)cc(C(F)(F)F)n(C)c2=O)c(F)cc1Cl [Saflufenacil] | No residual activity | –
33 | CS(=O)(=O)c1ccc(C(=O)C2C(=O)CCCC2=O)c(Cl)c1 [Sulcotrione] | No residual activity | –
34 | CS(=O)(=O)c1ccc(C(=O)C2C(=O)CCCC2=O)c(Cl)c1COCC(F)(F)F [Tembotrione] | – | residual activity (weed or grass): 14 days residual activity
35 | COC(=O)CCNC(=O)C(C)Sc1cc(-n2c(=O)cc(C(F)(F)F)n(C)c2=O)c(F)cc1Cl (stereo not drawn) [Tiafenacil] | Burndown with no residual activity | –
36 | Cc1c(C(=O)c2cnn(C)c2O)ccc(S(C)(=O)=O)c1C1=NOCC1 [Topramezone] | – | residual activity (weed or grass): 14 days residual activity
37 | C#CCN1C(=O)C(F)(F)Oc2cc(F)c(-n3c(=O)n(C)c(=S)n(C)c3=O)cc21 [Trifludimoxazin] | – | residual activity (weed or grass): Short residual activity of 40 days
38 | Capric/decanoate acid of salt thereof | No residual activity | –
39 | Oxadiargyl | Pre-emergent active | –
